Results on 30 compounds are retold here after patent publication US12570675B2, “Boronic acid compounds” (LG CHEM, LTD., priority 2020, dated 2026).

Proteasome chymotrypsin-like activity (S26 protein from RPMI8226 cells), sequence (P28074 60-263 limits assumed): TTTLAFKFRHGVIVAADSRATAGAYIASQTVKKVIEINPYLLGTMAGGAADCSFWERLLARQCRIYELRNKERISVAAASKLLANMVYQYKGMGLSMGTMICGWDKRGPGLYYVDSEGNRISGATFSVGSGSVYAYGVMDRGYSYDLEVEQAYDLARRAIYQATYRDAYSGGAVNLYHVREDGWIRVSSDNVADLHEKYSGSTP

This assay addresses Proteasome chymotrypsin-like activity (S26 protein from RPMI8226 cells) (Homo sapiens, UniProt P28074). The format is biochemical. To be noted: S26 protein from RPMI8226 cell extract 2 ug/well, substrate 20 uM, 37° C., 90 minutes; read-out: Proteasome chymotrypsin-like activity inhibition IC50. Summed up:
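Inhibition is measured in crude proteasome (S26) from RPMI8226 cells at 2 ug/well, using 20 uM substrate specific to each activity: Suc-LLVY-AMC for chymotrypsin-like, Z-LLE-AMC for caspase-like. Compounds span a dilution series from 10 uM.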
For orientation: IC50 means the concentration needed to halve the response being measured. Turning to `CC(C)C[C@H](NC(=O)C1(Cc2ccccc2)CC(CNCc2cc(Cl)ccc2Cl)=NO1)B(O)O` (stereo partly drawn) [Example 146, ((1R)-1-(5-benzyl-3-(((2,5-dichlorobenzyl)amino)methyl)-4,5-dihydroisoxazol-5-carboxamido)-3-methylbutyl)boronic acid], the IC50 is below 25 nM.

For the compound `COc1cccc(CC2(C(=O)N[C@@H](CC(C)C)B(O)O)CC(CNC(=O)c3cc(-c4ccccc4)nn3C(C)C)=NO2)c1` (stereo partly drawn) [Example 230, ((1R)-1-(3-((1-isopropyl-3-phenyl-1H-pyrazol-5-carboxamido)methyl)-5-(3-methoxybenzyl)-4,5-dihydroisoxazol-5-carboxamido)-3-methylbutyl)boronic acid], the half-maximal inhibitory concentration (IC50) is below 10 nM.

On to `CC(C)C[C@H](NC(=O)C1(Cc2cccc(Cl)c2)CC(CNC(=O)c2ccnn2C(C)C)=NO1)B(O)O` (stereo partly drawn) [Example 250, ((1R)-1-(5-(3-chlorobenzyl)-3-((1-isopropyl-1H-pyrazol-5-carboxamido)methyl)-4,5-dihydroisoxazol-5-carboxamido)-3-methylbutyl)boronic acid], for which the 50% inhibitory concentration (IC50) was below 10 nM.

Regarding `CC(C)C[C@H](NC(=O)C1CC(CNC(=O)c2ccccn2)=NO1)B(O)O` (stereo partly drawn) [Example 60], the 50% inhibitory concentration (IC50) was below 250 nM.

For `CC(C)C[C@H](NC(=O)C1(Cc2ccccc2)CC(CNC(=O)c2nccnc2N)=NO1)B(O)O` (stereo partly drawn) [Example 161, ((1R)-1-(3-((3-aminopyrazin-2-carboxamido)methyl)-5-benzyl-4,5-dihydroisoxazol-5-carboxamido)-3-methylbutyl)boronic acid], the IC50 is below 10 nM.

With `CC(C)C[C@H](NC(=O)C1(Cc2ccccc2)CC(CNC(=O)c2ccn[nH]2)=NO1)B(O)O` (stereo partly drawn) [Example 169, ((1R)-1-(3-((1H-pyrazol-5-carboxamido)methyl)-5-benzyl-4,5-dihydroisoxazol-5-carboxamido)-3-methylbutyl)boronic acid], the IC50 was below 25 nM.

Turning to `COc1ccc(C(=O)NCC2=NOC(Cc3ccccc3)(C(=O)N[C@@H](Cc3ccccc3)B(O)O)C2)cc1` (stereo partly drawn) [Example 283, ((1R)-1-(5-benzyl-3-((4-methoxybenzamido)methyl)-4,5-dihydroisoxazol-5-carboxamido)-2-phenylethyl)boronic acid], the half-maximal inhibitory concentration (IC50) is below 10 nM.

For the compound `CC(C)C[C@H](NC(=O)C1(Cc2ccccc2)CC(CNC(=O)c2cc(C(C)C)nn2C(C)C)=NO1)B(O)O` (stereo partly drawn) [Example 227, ((1R)-1-(5-benzyl-3-((1,3-diisopropyl-1H-pyrazol-5-carboxamido)methyl)-4,5-dihydroisoxazol-5-carboxamido)-3-methylbutyl)boronic acid], the half-maximal inhibitory concentration (IC50) is below 10 nM.

Consider `CC(C)C[C@H](NC(=O)C1(Cc2ccccc2)CC(CNC(=O)c2cccc(-c3ccccn3)c2)=NO1)B(O)O` (stereo partly drawn) [Example 98, ((1R)-1-(5-benzyl-3-((3-(pyridin-2-yl)benzamido)methyl)-4,5-dihydroisoxazol-5-carboxamido)-3-methylbutyl)boronic acid], for which the IC50 was below 10 nM.

With `Cc1cccc(CC2(C(=O)N[C@@H](CC(C)C)B(O)O)CC(CNC(=O)c3cc(C)nn3C3CCCC3)=NO2)c1` (stereo partly drawn) [Example 243, ((1R)-1-(3-((1-cyclopentyl-3-methyl-1H-pyrazol-5-carboxamido)methyl)-5-(3-methylbenzyl)-4,5-dihydroisoxazol-5-carboxamido)-3-methylbutyl)boronic acid], the IC50 is below 10 nM.

For `Cc1cc(C(=O)NCC2=NOC(C(=O)N[C@@H](CC(C)C)B(O)O)C2)no1` (stereo partly drawn) [Example 81, ((1R)-3-methyl-1-(3-((5-methylisoxazol-3-carboxamido)methyl)-4,5-dihydroisoxazol-5-carboxamido)butyl)boronic acid], the 50% inhibitory concentration (IC50) is below 250 nM.

In the case of `CC(C)C[C@H](NC(=O)C1CC(CNC(=O)c2ccc3ccccc3c2)=NO1)B(O)O` (stereo partly drawn) [Example 69, [(1R)-3-methyl-1-[[3-[(naphthalen-2-carbonylamino)methyl]-4,5-dihydro-1,2-oxazol-5-carbonyl]amino]butyl]boronic acid], the IC50 was below 25 nM.

Turning to `O=C(NCC1=NOC(Cc2ccccc2)(C(=O)N[C@@H](Cc2ccccc2)B(O)O)C1)c1cccn2cnnc12` (stereo partly drawn) [Example 306, ((1R)-1-(3-(([1,2,4]triazolo[4,3-a]pyridin-8-carboxamido)methyl)-5-benzyl-4,5-dihydroisoxazol-5-carboxamido)-2-phenylethyl)boronic acid], the IC50 is below 10 nM.

As for `CC(C)C[C@H](NC(=O)C1CC([C@H](CC(C)C)NC(=O)Cc2ccccc2)=NO1)B(O)O` (stereo partly drawn) [Example 105, ((1R)-3-methyl-1-(3-((S)-3-methyl-1-(2-phenylacetamido)butyl)-4,5-dihydroisoxazol-5-carboxamido)butyl)boronic acid], the IC50 is below 100 nM.

Take `CC(C)C[C@H](NC(=O)C1(Cc2ccccc2)CC(CNC(=O)c2ccnc3c2ccn3C)=NO1)B(O)O` (stereo partly drawn) [Example 210, ((1R)-1-(5-benzyl-3-((1-methyl-1H-pyrrolo[2,3-b]pyridin-4-carboxamido)methyl)-4,5-dihydroisoxazol-5-carboxamido)-3-methylbutyl)boronic acid]: the IC50 was below 10 nM.

Turning to `CC(C)C[C@H](NC(=O)C1CC(c2ccc3ncccc3c2)=NO1)B(O)O` (stereo partly drawn) [Example 30, ((1R)-3-methyl-1-(3-(quinolin-6-yl)-4,5-dihydroisoxazol-5-carboxamido)butyl)boronic acid], the IC50 is below 1000 nM.

On to `CC(C)C[C@H](NC(=O)C1(Cc2c(F)cccc2F)CC(CNC(=O)c2nccc3ccccc23)=NO1)B(O)O` (stereo partly drawn) [Example 174, ((1R)-1-(5-(2,6-difluorobenzyl)-3-((isoquinolin-1-carboxamido)methyl)-4,5-dihydroisoxazol-5-carboxamido)-3-methylbutyl)boronic acid], for which the half-inhibitory concentration (IC50) is below 10 nM.

With `CC(C)C[C@H](NC(=O)C1(COC2CCCCC2)CC(CNC(=O)c2nccc3ccccc23)=NO1)B(O)O` (stereo partly drawn) [Example 214, ((1R)-1-(5-((cyclohexyloxy)methyl)-3-((isoquinolin-1-carboxamido)methyl)-4,5-dihydroisoxazol-5-carboxamido)-3-methylbutyl)boronic acid], the concentration for half-maximal inhibition (IC50) is below 10 nM.

As to `CC[C@H](NC(=O)C1(Cc2ccccc2)CC(CNC(=O)c2cccc(Cl)n2)=NO1)B(O)O` (stereo partly drawn) [Example 318, ((1R)-1-(5-benzyl-3-((6-chloropicolinamido)methyl)-4,5-dihydroisoxazol-5-carboxamido)propyl)boronic acid], the IC50 is below 25 nM.

As for `Cc1cc(C(=O)NCC2=NOC(Cc3cccc(Cl)c3)(C(=O)N[C@@H](CC(C)C)B(O)O)C2)n(C(C)C)n1` (stereo partly drawn) [Example 225, ((1R)-1-(5-(3-chlorobenzyl)-3-((1-isopropyl-3-methyl-1H-pyrazol-5-carboxamido)methyl)-4,5-dihydroisoxazol-5-carboxamido)-3-methylbutyl)boronic acid], the IC50 was below 10 nM.

With `N#Cc1cccc(COCC2=NOC(Cc3ccccc3)(C(=O)N[C@@H](Cc3ccccc3)B(O)O)C2)c1` (stereo partly drawn) [Example 265, ((1R)-1-(5-benzyl-3-(((3-cyanobenzyl)oxy)methyl)-4,5-dihydroisoxazol-5-carboxamido)-2-phenylethyl)boronic acid], the half-inhibitory concentration (IC50) was below 10 nM.

On to `O=C(NCC1=NOC(Cc2ccccc2)(C(=O)N[C@@H](Cc2ccccc2)B(O)O)C1)c1cc(Cl)ccc1Cl` (stereo partly drawn) [Example 296, ((1R)-1-(5-benzyl-3-((2,5-dichlorobenzamido)methyl)-4,5-dihydroisoxazol-5-carboxamido)-2-phenylethyl)boronic acid], for which the half-maximal inhibitory concentration (IC50) is below 10 nM.

As to `Cc1nc(COCC2=NOC(Cc3ccccc3)(C(=O)N[C@@H](CC(C)C)B(O)O)C2)c(Cl)s1` (stereo partly drawn) [Example 50, ((1R)-1-(5-benzyl-3-(((5-chloro-2-methylthiazol-4-yl)methoxy)methyl)-4,5-dihydroisoxazol-5-carboxamido)-3-methylbutyl)boronic acid], the IC50 was below 10 nM.

Turning to `CC(C)C[C@H](NC(=O)C1(Cc2ccccc2)CC(COCc2cccc(-c3ccccc3)n2)=NO1)B(O)O` (stereo partly drawn) [Example 55, [(1R)-1-[[5-benzyl-3-[(6-phenyl-2-pyridyl)methoxymethyl]-4H-1,2-oxazol-5-carbonyl]amino]-3-methyl-butyl]boronic acid], the IC50 was below 10 nM.

For the compound `CC(C)C[C@H](NC(=O)C1(Cc2cccc(OC(F)(F)F)c2)CC(CNC(=O)c2nccc3ccccc23)=NO1)B(O)O` (stereo partly drawn) [Example 216, ((1R)-1-(3-((isoquinolin-1-carboxamido)methyl)-5-(3-(trifluoromethoxy)benzyl)-4,5-dihydroisoxazol-5-carboxamido)-3-methylbutyl)boronic acid], the IC50 is below 10 nM.

For `COC[C@@H](NC(=O)c1nccc2ccccc12)C1=NOC(Cc2ccccc2)(C(=O)N[C@@H](CC(C)C)B(O)O)C1` (stereo partly drawn) [Example 185, ((1R)-1-(5-benzyl-3-((S)-1-(isoquinolin-1-carboxamido)-2-methoxyethyl)-4,5-dihydroisoxazol-5-carboxamido)-3-methylbutyl)boronic acid], the half-inhibitory concentration (IC50) was below 10 nM.

For `Cc1ccc(F)cc1C(=O)NCC1=NOC(Cc2ccccc2)(C(=O)N[C@@H](CC(C)C)B(O)O)C1` (stereo partly drawn) [Example 111, ((1R)-1-(5-benzyl-3-((5-fluoro-2-methylbenzamido)methyl)-4,5-dihydroisoxazol-5-carboxamido)-3-methylbutyl)boronic acid], the 50% inhibitory concentration (IC50) was below 10 nM.

With `CC(C)C[C@H](NC(=O)C1CC(c2cccc(C(C)(C)C)c2)=NO1)B(O)O` (stereo partly drawn) [Example 14, ((1R)-1-(3-(3-(tert-butyl)phenyl)-4,5-dihydroisoxazol-5-carboxamido)-3-methylbutyl)boronic acid], the concentration for half-maximal inhibition (IC50) was below 250 nM.

In the case of `CC(C)C[C@H](NC(=O)C1(Cc2ccccc2)CC(COCc2cccc(C#N)c2)=NO1)B(O)O` (stereo partly drawn) [Example 264], the IC50 was below 10 nM.

For the compound `CC(C)C[C@H](NC(=O)C1(Cc2ccccc2)CC(CNCc2nccc3ccccc23)=NO1)B(O)O` (stereo partly drawn) [Example 147, ((1R)-1-(5-benzyl-3-(((isoquinolin-1-ylmethyl)amino)methyl)-4,5-dihydroisoxazol-5-carboxamido)-3-methylbutyl)boronic acid], the IC50 is below 25 nM.
